Measured values reported in patent publication US20240245664A1, “METHODS OF USING USP15 INHIBITORS” (The Curators of the University of Missouri, priority 2021, published 2024).
Entries after “also recorded” stand apart in the source; their conditions may differ. Residues, ends and D or L forms follow the SMILES beside them. *: point of attachment. Cbz = O=C(OCc1ccccc1)*

Tests used:
[1] = tested on: GS; assay: GS ubiquitylation in USP15-/- 293FT cells, TUBE2 pulldown; type: cell-based; settings: for accumulation of ubiquitylated GS under CB-5083 with co-treatment: pre-treated 2 μM MLN4924 or 2 mM MSO 0.5 h, then CB-5083 6 h
Text: FIG. 3B depicts a Western blot. […] Total ubiquitylated proteins were purified using TUBE2-agarose.

[2] = tested on: GS; assay: Glutamine-induced GS degradation in glutamine-starved H1299 cells with Torin1 and CB5083; type: cell-based
Procedure: FIG. 8A depicts a Western blot. Glutamine-starved H1299 cells, pre-treated with 250 nM Torin1 and 10 μM CB5083 for 0.5 h, were stimulated with 4 mM glutamine for 4 h. Cell extracts were analyzed by IB with the indicated antibodies.

[3] = tested on: GS; settings: Jurkat cells, treated 4 h; cited from earlier work
[4] = tested on: GSPT1; assay: CC-885-induced GSPT1 ubiquitylation and degradation in USP15-/- 293FT cells with inhibitors
[5] = tested on: GS; assay: Glutamine-induced GS degradation in H1299 cells co-treated with DUB inhibitor and MLN4924; type: cell-based; settings: 2 μM MLN4924 with NSC632839 or PR-619, 4 mM glutamine 8 h
Procedure: FIG. 1G depicts a Western blot. […] Cell extracts were analyzed by IB. The relative ratio of GS:Actin is shown.
FIG. 1H depicts a Western blot. […] Cell extracts were analyzed by IB. The relative ratio of GS:Actin is shown.

[6] = tested on: GS; assay: Rescue of endogenous GS protein levels in USP15-KO 293FT cells, immunoblot; type: cell-based; settings: 2 μM MLN4924 or 2 mM MSO
Procedure: Cell extracts were analyzed by IB with the indicated antibodies.

[7] = tested on: GS; assay: GS stability in mTOR-shRNA 293FT cells treated with MLN4924 or MSO; type: cell-based; settings: mTOR-shRNA TRIPZ_3 293FT cells, treated 14 h
Procedure: Cells were treated with different concentrations of MLN4924 for 14 h. Cell extracts were analyzed by IB with the indicated antibodies.
Cells were treated with different concentrations of MSO (G) for 14 h. Cell extracts were analyzed by IB with the indicated antibodies.

[8] = tested on: LN229 cells; settings: no glutamine, MSO 2 mM, 5 days
Procedure: FIG. 3E depicts quantification of cell viability. […] An equal number of cells (1×10^6 cells in 10-cm plates) were then shifted to medium without glutamine in the presence (+) or absence (−) of the GS inhibitor MSO (2 mM) for 5 days, after which cell viability was quantified by staining with 0.4% Trypan blue. Cell viability was normalized to MSO-untreated control (−), which was set to 100%.

[9] = target: T1, USP15 (Homo sapiens, UniProt Q9Y4E8); assay: In vitro deubiquitylation assay with recombinant USP15 (rUSP15); settings: for activity of USP15 (deubiquitylation of polyubiquitylated GSPT1): 37° C., 0.5 h
T1 sequence (Q9Y4E8 1-981): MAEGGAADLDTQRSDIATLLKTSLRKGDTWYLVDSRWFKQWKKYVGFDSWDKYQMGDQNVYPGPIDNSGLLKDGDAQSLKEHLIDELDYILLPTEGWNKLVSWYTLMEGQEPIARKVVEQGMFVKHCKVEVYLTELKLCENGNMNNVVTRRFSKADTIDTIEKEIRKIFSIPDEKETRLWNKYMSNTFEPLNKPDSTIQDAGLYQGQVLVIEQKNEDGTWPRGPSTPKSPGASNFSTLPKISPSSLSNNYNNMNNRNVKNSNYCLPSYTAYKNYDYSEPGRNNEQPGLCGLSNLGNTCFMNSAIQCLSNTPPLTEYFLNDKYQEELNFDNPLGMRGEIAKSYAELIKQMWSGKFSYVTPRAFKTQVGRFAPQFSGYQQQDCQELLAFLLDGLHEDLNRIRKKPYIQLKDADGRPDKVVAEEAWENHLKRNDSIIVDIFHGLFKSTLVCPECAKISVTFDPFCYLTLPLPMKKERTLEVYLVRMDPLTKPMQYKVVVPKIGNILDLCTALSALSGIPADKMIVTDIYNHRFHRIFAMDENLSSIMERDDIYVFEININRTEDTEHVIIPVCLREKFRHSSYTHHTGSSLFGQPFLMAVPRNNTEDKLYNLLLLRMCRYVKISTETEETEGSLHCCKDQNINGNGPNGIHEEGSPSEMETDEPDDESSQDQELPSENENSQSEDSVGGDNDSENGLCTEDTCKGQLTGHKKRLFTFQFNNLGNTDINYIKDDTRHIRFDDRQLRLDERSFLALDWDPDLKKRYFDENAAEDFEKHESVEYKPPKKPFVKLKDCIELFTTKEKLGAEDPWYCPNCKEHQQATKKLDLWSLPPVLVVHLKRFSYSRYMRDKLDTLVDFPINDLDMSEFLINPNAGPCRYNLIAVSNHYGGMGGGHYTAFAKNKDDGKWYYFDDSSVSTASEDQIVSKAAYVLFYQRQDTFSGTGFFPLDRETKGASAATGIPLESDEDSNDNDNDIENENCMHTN
Text: GSPT1(Ub)n: polyubiquitylated GSPT1.
SE and LE: short and long exposures. GSPT1(Ub)n: polyubiquitylated GSPT1.

[10] = tested on: GS; assay: Glutamine-induced GS ubiquitylation, TUBE2 pulldown and immunoblot in MCF7 cells; type: cell-based; settings: MCF7 cells starved of glutamine 24 h; 40 μM NSC632839 or 20 μM PR-619 0.5 h, then 4 mM glutamine 2 h
Procedure: FIG. 1D depicts a Western blot. MCF7 cells, starved of glutamine for 24 h, were treated with MG132 (10 μM) and/or 40 μM NSC632839, 20 μM PR-619 for 0.5 h, followed by 4 mM glutamine treatment for 2 h. Total ubiquitylated proteins were purified using TUBE2-agarose, and then analyzed by IB with indicated antibodies. The relative ratio of ubiquitylated GS, GS(Ub)n to input GS, normalized to that of glutamine-treated cells in lane 2, are shown.

[11] = tested on: GS; assay: Endogenous GS protein level by immunoblot in glutamine-treated MCF7 cells; type: cell-based; settings: MCF7 cells starved of glutamine 24 h; inhibitor 0.5 h, then 4 mM glutamine 10 h
Procedure: FIG. 1E depicts a Western blot. MCF7 cells, starved of glutamine for 24 h, were treated with NSC632839 for 0.5 h, followed by 4 mM glutamine treatment for 10 h. Cell extracts were analyzed by IB. The relative ratio of GS:Actin is shown.
FIG. 1F depicts a Western blot. MCF7 cells, starved of glutamine for 24 h, were treated with PR-619 for 0.5 h, followed by 4 mM glutamine treatment for 10 h. Cell extracts were analyzed by IB. The relative ratio of GS:Actin is shown.

[12] = tested on: U266 cells; assay: Neo-substrate degradation in U266 cells, PR-619 with lenalidomide, immunoblot; type: cell-based; settings: PR-619 2 μM 1 h, lenalidomide 0, 2 and 10 μM 6 h
Procedure: FIG. 6L depicts a Western blot. […] Cell extracts were analyzed by SDS-PAGE and immunoblotting with indicated antibodies.

[13] = tested on: RPMI8226 cells; assay: RPMI8226 cell number/viability, PR-619 with lenalidomide, Trypan blue; type: cell-based; settings: PR-619 1 μM with lenalidomide, 4 days
Text: FIG. 6G depicts total cell number after different treatment conditions. […] Error bars represent the SEM of triplicates (P<0.003 by t test).

[14] = tested on: cysteine protease DUBs, including USP15; settings: cited from earlier work
[15] = tested on: mTORC1; assay: Glutamine-induced serine phosphorylation of USP15^Flag and USP15-GS binding, IP in 293FT cells; type: cell-based
Procedure: FIG. 7B depicts a Western blot. 293FT cells, transfected with CT or USP15^Flag plasmid for 24 h, were grown in complete medium (C; 2 mM glutamine) or starved of glutamine for 24 h, then treated with Torin1 for 0.5 h, followed by 4 mM glutamine treatment for 1-2 h. Cell extracts were immunoprecipitated with anti-Flag. The relative ratios of phosphorylated serine USP15^Flag to total input USP15^Flag and endogenous GS interacted with USP15^Flag to input GS, normalized to that of untreated cells in lane 3, are shown.

[16] = tested on: USP15; assay: USP15 S229 phosphorylation by mass spectrometry in 293FT cells; type: cell-based; settings: 250 nM Torin1 16 h vs DMSO
Procedure: FIG. 10C depicts the phosphorylation peptide abundance calculated by phosphorylated peptides/(phosphorylated peptides+unmodified peptides)*100%. The abundance of S229 phosphorylation (P-S229) was calculated and represented as mean±SD; n=2 per group (p=0.01035 by t test).
To map the phosphorylation sites of USP15, which has 32 potential serine/threonine phosphorylation sites reported in ‘PhosphoSitePlus’ with the most prevalent serine 229, USP15^Flag was immune-purified from 293FT cells treated with DMSO or 250 nM Torin1 for 16 h and analyzed by MS analysis. […] Moreover, it represents an mTOR consensus sequence motif S/T-P (where S is serine; T is threonine; and P is proline) (FIG. 10B). […] Thus, the MS data were consistent with the other results, showing that USP15 was phosphorylated at serine in an mTORC1-dependent manner (FIG. 7B-7C).
MS analysis to identify the phosphorylation sites of USP15 was done at the Charles W. Gehrke proteomics center—University of Missouri, as described previously (Peterson T R, et al., Cell. 2009; 137(5):873-86. Epub 2009/05/19).

## Cc1cc2c(C(N)=O)cccc2n1-c1nc2c(c(NCc3ccccc3)n1)COCC2 [CB-5083]
[1]; 0.5 mM glutamine, CB-5083 6 h
  accumulation of ubiquitylated GS: accumulation of ubiquitylated GS was observed
[2]; H1299 cells, 10 μM CB5083 with 250 nM Torin1
  Torin-1-promoted glutamine-induced GS degradation with p97 inhibitor: blunted

## CC(C)C[C@@H](C=O)NC(=O)[C@H](CC(C)C)NC(=O)[C@H](CC(C)C)NC(=O)OCc1ccccc1 [MG132] (Cbz-Leu-Leu-Leu-aldehyde)
[3]
  GS ubiquitylation (SILAC ubiquitinome): increased ubiquitylation of GS
[4]; USP15-/- 293FT cells co-treated with CC-885 and inhibitor
  CC-885-induced degradation of GSPT1: blocked
[4]; USP15-/- 293FT cells, 10 μM CB-5083 or 20 μM MG132, 10 μM CC-885 3 h
  polyubiquitylated GSPT1 on co-treatment with CC-885: polyubiquitylated GSPT1 was accumulated

## NS(=O)(=O)OC[C@@H]1C[C@@H](n2ccc3c(N[C@H]4CCc5ccccc54)ncnc32)C[C@@H]1O [MLN4924]
[5]
  effect on action of DUB inhibitors on glutamine-induced GS degradation: blocked the action of DUB inhibitors on glutamine-induced GS degradation
[6]
  downregulation of endogenous GS protein levels in USP15-KO cells: rescued
[1]
  accumulation of ubiquitylated GS under CB-5083 with co-treatment: but not in cells co-treated with MLN4924 and MSO
[7]
  effect of mTOR depletion by shRNA on GS stability: rescued the effect of mTOR depletion by shRNA on GS stability
[4]; USP15-/- 293FT cells, 2 μM MLN4924
  accumulation of polyubiquitylated GSPT1 (CC-885 with MG132 or CB-5083) in presence of MLN4924: completely abolished

## CS(=N)(=O)CC[C@H](N)C(=O)O (stereo partly drawn) [MSO, L-Methionine sulfoximine]
[6]
  downregulation of endogenous GS protein levels in USP15-KO cells: rescued
[1]
  accumulation of ubiquitylated GS under CB-5083 with co-treatment: but not in cells co-treated with MLN4924 and MSO
[8]; LN229 cells with USP15 shRNAs
  cell viability, combined with USP15 depletion by shRNAs: synergistic inhibition of cell viability
[8]; control LN229 cells
  cell viability: severe defect in cell viability
[7]
  effect of mTOR depletion by shRNA on GS stability: rescued the effect of mTOR depletion by shRNA on GS stability

## CCN1C(=O)C=CC1=O [N-Ethylmaleimide]
[9]; NEM 20 mM (FIG. 5B legend)
  activity of USP15 (deubiquitylation of polyubiquitylated GSPT1): completely inhibited

## Cc1ccc(/C=C2\CNC/C(=C\c3ccc(C)cc3)C2=O)cc1.Cl [NSC632839]
[10]
  glutamine-induced ubiquitylation of GS: promoted glutamine-induced ubiquitylation of GS
[11]
  protein levels of endogenous GS: decreased protein levels of endogenous GS

## N#CSc1cc(SC#N)c(N)nc1N [PR-619]
[10]
  glutamine-induced ubiquitylation of GS: promoted glutamine-induced ubiquitylation of GS
[11]
  protein levels of endogenous GS: decreased protein levels of endogenous GS
[12]
  degradation of neo-substrates on co-treatment with lenalidomide: significantly promoted degradation of neo-substrates
[13]
  sensitization to lenalidomide (cell number/viability): sensitized resistant cell line RPMI8226 to lenalidomide
[3]
  GS ubiquitylation (SILAC ubiquitinome): decreased GS ubiquitylation; also recorded: decreased the ubiquitination of GS
[14]
  inhibition of DUB activity (previous study): can inhibit the activity of almost all cysteine protease DUBs, including USP15
[9]; PR-619 100 μM
  activity of USP15 (deubiquitylation of polyubiquitylated GSPT1): completely inhibited
[9]; PR-619 concentration range 1-20 μM
  USP15 activity: substantially suppressed USP15 activity in a dose-dependent manner

## CCC(=O)N1CCN(c2ccc(-n3c(=O)ccc4cnc5ccc(-c6cnc7ccccc7c6)cc5c43)cc2C(F)(F)F)CC1 [Torin1]
[15]; Torin1 0.5 h then 4 mM glutamine 1-2 h
  glutamine-induced phosphorylated serine USP15^Flag (P-Ser-USP15): substantially abolished
[15]; Torin1-treated
  binding of USP15 to GS: significant reduction in binding of USP15 to GS
[2]; glutamine-starved H1299 cells, 250 nM Torin1, 4 mM glutamine 4 h
  glutamine-induced GS degradation: promoted glutamine-induced GS degradation
[16]
  S229 phosphorylation of USP15: significantly decreased
